Laboratory results: PMC6445168, “Design, synthesis and antimalarial activity of novel bis{N-[(pyrrolo[1,2-a]quinoxalin-4-yl)benzyl]-3-aminopropyl}amine derivatives” (Journal of Enzyme Inhibition and Medicinal Chemistry, 2017)

Tests used:
[1] = test system: L. donovani (MHOM/IN/00/DEVI) promastigotes; assay: In vitro antileishmanial activity on promastigotes, MTT assay; format: cell-based; conditions: Leishmania donovani, 72 h incubation, mean ± SD of three independent experiments
Procedure: L. donovani (MHOM/IN/00/DEVI) used in this study was provided by the CNR Leishmania (Montpellier, France). The effects of the tested compounds on the growth of L. donovani (MHOM/IN/00/DEVI)promastigotes were assessed by MTT assay[41] .Briefly, promastigotes in log-phase in Schneider′s medium supplemented with 20% fetal calf serum (FCS), 2 mM L-glutamine and antibiotics (100 U/mL penicillin and 100 μg/mL streptomycin), were incubated at an average density of 10^6 parasites/mL in sterile 96-well plates with various concentrations of compounds dissolved in DMSO (final concentration less than 0.5% v/v), in duplicate. Appropriate controls treated by DMSO and pentamidine or amphotericin B (reference drugs purchased from Sigma-Aldrich) were added to each set of experiments. After a 72 h incubation period at 27 °C, parasite metabolic activity was determined. Each plate-well was then microscope-examined for detecting possible precipitate formation. 20 μL of MTT 3–(4,5-dimethylthiazol-2-yl)-2,5-diphenyltetrazolium bromide) solution (5 mg/mL) were added to each well followed by incubation for another 4 h. The enzyme reaction was then stopped by addition of 100 μL of 50% isopropanol – 10% sodium dodecyl sulfate[42] .Plates were shaken vigorously (300 rpm) for 10 minutes and the absorbance measured in a plate reader at 570 nm in a BIO-TEK ELx808 Absorbance Microplate Reader. […] IC50 were calculated by non-linear regression analysis processed on doseresponse curves, using TableCurve 2D V5.0 software. IC50 values represent the mean value calculated from three independent experiments.

[2] = Cytotoxicity evaluation, MTT assay; format: cell-based, human; conditions: human, HepG2 cells (hepatocarcinoma cell line, ATCC HB-8065); HepG2, 72 h incubation, mean ± SD of three independent experiments
Procedure: These assays were performed toward the human HepG2 cell line (HepG2 CC50). […] These cells express many of the hepatocyte-specific metabolic enzymes, thus enabling the cytotoxicity of tested product metabolites to be evaluated. […] Duplicate assays were performed for each sample. Each plate-well was then microscope-examined for detecting possible precipitate formation before the medium was aspirated from the wells. 100 μL of MTT solution (0.5 mg/mL in medium without FCS) were then added to each well. […] After this time, the MTT solution was removed and DMSO (100 μL) was added to dissolve the resulting blue formazan crystals. Plates were shaken vigorously (300 rpm) for 5 minutes. The absorbance was measured at 570 nm with 630 nm as reference wavelength spectrophotometer using a BIO-TEK ELx808 Absorbance Microplate Reader. DMSO was used as blank and doxorubicin (Sigma Aldrich) as positive control. Cell viability was calculated as percentage of control (cells incubated without compound). The 50% cytotoxic concentration was determined from the dose-response curve by using the TableCurve 2D V5.0 software (Systat Software, San Jose, CA).

[3] = test system: P. falciparum CQ-resistant strain W2; assay: In vitro antiplasmodial activity, SYBR Green I fluorescence-based method, W2 strain; format: cell-based, Plasmodium falciparum; conditions: for IC50: Plasmodium falciparum, chloroquine-resistant strain W2, 48 h incubation, read-out: P. falciparum strains IC50 values, W2; for Selectivity Index HepG2/W2: ratio CC50 HepG2 / IC50 W2
Procedure: (§1) The in vitro antiplasmodial activities were tested over concentrations ranging from 39 nM to 40 μM against culture-adapted Plasmodium falciparum reference strains 3D7 and W2. […] The parasites were cultivated in RPMI medium (Sigma-Aldrich, Lyon, France) supplemented with 0.5% Albumax I (Life Technologies corporation, Paisley, United Kingdom), hypoxanthine (Sigma-Aldrich), gentamicin (Sigma-Aldrich), and human erythrocytes and were incubated at 37 °C in a candle jar, as described previously. The P. falciparum drug susceptibility test was carried out in 96-well flat bottom sterile plates under a final volume of 250 μL. After a 48 h incubation with the drugs, quantities of DNA in treated and control cultures of parasites in human erythrocytes were compared according to the SYBR Green I (Sigma-Aldrich) fluorescence-based method[38]^,[39]. Briefly, after incubation, plates were frozen at -20 °C until use. They were then left to thaw for 2 h at room temperature and 100 μL of the homogenized culture were transferred to 96-well flat bottom sterile black plates (Nunc Inc) already containing 100 μL of the SYBR Green I lysis buffer (2xSYBR Green, 20 mM Tris base pH 7.5, 5 mM EDTA, 0.008% w/v saponin, 0.08% w/v Triton X-100). […] Plates were incubated for 1 h at room temperature and then read on a fluorescence plate reader (Tecan, Austria) using excitation and emission wavelengths of 485 and 535 nm, respectively.

[4] = test system: P. falciparum CQ-sensitive strain 3D7; assay: In vitro antiplasmodial activity, SYBR Green I fluorescence-based method, 3D7 strain; format: cell-based, Plasmodium falciparum; conditions: for IC50: Plasmodium falciparum, 3D7, 48 h, chloroquine-sensitive strain 3D7, 48 h incubation, read-out: P. falciparum strains IC50 values, 3D7; for Selectivity Index HepG2/3D7: ratio CC50 HepG2 / IC50 3D7
Procedure: as §1

SMILES | IC50 [1] [nM] | CC50 at 72 h [2] [nM] | IC50 [3] [nM] | Selectivity Index HepG2/W2 [3] | IC50 [4] [nM] | Selectivity Index HepG2/3D7 [4]
c1ccc2c(c1)nc(-c1ccc(CNCCCNCCCNCc3ccc(-c4nc5ccccc5n5cccc45)cc3)cc1)c1cccn12 [1a, Bis{N-[4-(pyrrolo[1,2-a]quinoxalin-4-yl)benzyl]-3-aminopropyl}amine] | 1000 ± 200 | 1810 ± 100 | 850 ± 150 | 2.13 | 3420 ± 540 | 0.53
CN(CCCNCc1ccc(-c2nc3ccccc3n3cccc23)cc1)CCCNCc1ccc(-c2nc3ccccc3n3cccc23)cc1 [1b, Bis{N-[4-(pyrrolo[1,2-a]quinoxalin-4-yl)benzyl]-3-aminopropyl}methylamine] | – | 1560 ± 600 | 4200 ± 650 | 0.37 | 1200 ± 200 | 1.30
c1ccc2c(c1)nc(-c1ccc(CNCCCN3CCN(CCCNCc4ccc(-c5nc6ccccc6n6cccc56)cc4)CC3)cc1)c1cccn12 [1c, Bis{N-[4-(pyrrolo[1,2-a]quinoxalin-4-yl)benzyl]-3-aminopropyl}piperazine] | 1140 ± 200 | 1250 ± 300 | 3400 ± 740 | 0.37 | 800 ± 120 | 1.56
COc1ccc2c(c1)nc(-c1ccc(CNCCCN(C)CCCNCc3ccc(-c4nc5cc(OC)ccc5n5cccc45)cc3)cc1)c1cccn12 [1d, Bis{N-[4–(7-methoxypyrrolo[1,2-a]quinoxalin-4-yl)benzyl]-3-aminopropyl}methylamine] | 3890 ± 300 | 2570 ± 700 | 340 ± 40 | 7.56 | 4140 ± 30 | 0.62
COc1ccc2nc(-c3ccc(CNCCCN(C)CCCNCc4ccc(-c5nc6ccc(OC)cc6n6cccc56)cc4)cc3)c3cccn3c2c1 [1f, Bis{N-[4–(8-methoxypyrrolo[1,2-a]quinoxalin-4-yl)benzyl]-3-aminopropyl}methylamine] | 4250 ± 200 | 3380 ± 900 | 130 ± 10 | 26 | 5850 ± 70 | 0.58
COc1ccc2nc(-c3ccc(CNCCCN4CCN(CCCNCc5ccc(-c6nc7ccc(OC)cc7n7cccc67)cc5)CC4)cc3)c3cccn3c2c1 [1g, Bis{N-[4–(8-methoxypyrrolo[1,2-a]quinoxalin-4-yl)benzyl]-3-aminopropyl}piperazine] | 1070 ± 100 | 2140 ± 1400 | 360 ± 40 | 5.94 | 2220 ± 250 | 0.96
COc1cccc2nc(-c3ccc(CNCCCN(C)CCCNCc4ccc(-c5nc6cccc(OC)c6n6cccc56)cc4)cc3)c3cccn3c12 [1h, Bis{N-[4–(9-methoxypyrrolo[1,2-a]quinoxalin-4-yl)benzyl]-3-aminopropyl}methylamine] | 2070 ± 20 | 2440 ± 400 | 440 ± 110 | 5.54 | 250 ± 40 | 9.76
CCOc1ccn2c1c(-c1ccc(CNCCCN(C)CCCNCc3ccc(-c4nc5ccccc5n5ccc(OCC)c45)cc3)cc1)nc1ccccc12 [1j, Bis{N-[4–(3-ethoxypyrrolo[1,2-a]quinoxalin-4-yl)benzyl]-3-aminopropyl}methylamine] | 4260 ± 100 | 1950 ± 300 | 490 ± 160 | 3.98 | 260 ± 30 | 7.50
CCOc1ccn2c1c(-c1ccc(CNCCCN3CCN(CCCNCc4ccc(-c5nc6ccccc6n6ccc(OCC)c56)cc4)CC3)cc1)nc1ccccc12 [1k, Bis{N-[4–(3-ethoxypyrrolo[1,2-a]quinoxalin-4-yl)benzyl]-3-aminopropyl}piperazine] | ≥ 10000 | 1480 ± 500 | 90 ± 10 | 16.44 | 190 ± 10 | 7.79
c1ccc(-c2cc3c(-c4ccc(CNCCCN5CCN(CCCNCc6ccc(-c7nc8ccccc8n8cc(-c9ccccc9)cc78)cc6)CC5)cc4)nc4ccccc4n3c2)cc1 [1l, Bis{N-[4–(2-phenylpyrrolo[1,2-a]quinoxalin-4-yl)benzyl]-3-aminopropyl}piperazine] | – | – | 1390 ± 130 | – | 8960 ± 690 | –
CN(CCCNCc1cccc(-c2nc3ccccc3n3cccc23)c1)CCCNCc1cccc(-c2nc3ccccc3n3cccc23)c1 [1m, Bis{N-[3-(pyrrolo[1,2-a]quinoxalin-4-yl)benzyl]-3-aminopropyl}methylamine] | 2800 ± 100 | 1940 ± 1000 | 120 ± 10 | 16.17 | 1070 ± 160 | 1.81
c1cc(CNCCCN2CCN(CCCNCc3cccc(-c4nc5ccccc5n5cccc45)c3)CC2)cc(-c2nc3ccccc3n3cccc23)c1 [1n, Bis{N-[3-(pyrrolo[1,2-a]quinoxalin-4-yl)benzyl]-3-aminopropyl}piperazine] | 3710 ± 400 | 2030 ± 1200 | 50 ± 10 | 40.6 | 370 ± 40 | 5.49
COc1ccc2nc(-c3cccc(CNCCCN(C)CCCNCc4cccc(-c5nc6ccc(OC)cc6n6cccc56)c4)c3)c3cccn3c2c1 [1o, Bis{N-[3–(8-methoxypyrrolo[1,2-a]quinoxalin-4-yl)benzyl]-3-aminopropyl}methylamine] | 3510 ± 100 | 1500 ± 900 | 206 ± 30 | 7.28 | 180 ± 20 | 8.33
COc1ccc2nc(-c3cccc(CNCCCN4CCN(CCCNCc5cccc(-c6nc7ccc(OC)cc7n7cccc67)c5)CC4)c3)c3cccn3c2c1 [1p, Bis{N-[3–(8-methoxypyrrolo[1,2-a]quinoxalin-4-yl)benzyl]-3-aminopropyl}piperazine] | 3390 ± 400 | 1570 ± 800 | 170 ± 30 | 9.23 | 40 ± 4 | 39.25
c1ccc2c(c1)cc1c(-c3ccc(CNCCCN4CCN(CCCNCc5ccc(-c6nc7ccccc7n7c6cc6ccccc67)cc5)CC4)cc3)nc3ccccc3n12 [1q, Bis{N-[4-(indolo[1,2-a]quinoxalin-6-yl)benzyl]-3-aminopropyl}piperazine] | 570 ± 100 | 1560 ± 700 | – | – | 1000 ± 50 | –
c1ccc(-c2nc3ccccc3n3cc(CNCCCN4CCN(CCCNCc5cc6c(-c7ccccc7)nc7ccccc7n6c5)CC4)cc23)cc1 [1r, Bis{N-[(4-phenylpyrrolo[1,2-a]quinoxalin-2-yl)methyl]-3-aminopropyl}piperazine] | – | – | 750 ± 100 | – | 7220 ± 770 | –
C[C@@H]1[C@H](O)[C@@H](C)/C=C/C=C/C=C/C=C/C=C/C=C/C=C/[C@H](O[C@@H]2O[C@H](C)[C@@H](O)[C@H](N)[C@@H]2O)C[C@@H]2O[C@](O)(C[C@@H](O)C[C@@H](O)[C@H](O)CC[C@@H](O)C[C@@H](O)CC(=O)O[C@H]1C)C[C@H](O)[C@H]2C(=O)O [Amphotericin B, reference compound] | 100 ± 40 | – | – | – | – | –
